What all share (type): cell-based
The subject of one assay is mouse HSCs. The assay is described as follows: Short-term culture of HSCs (one week) with thyroid hormones and metabolites. Conditions: 10 µM; for number of HSCs after culture (total cell count per colony): 300 mouse HSCs cultured one week in SF-O3, SCF 100ng/mL, TPO 100ng/mL, vs control (Ctl), Figure 1; for CD48 expression (mean fluorescence intensity of CD48 staining per colony): one week culture, CD48 is a marker for cells differentiating from HSCs, Figure 2. Here is the method: Method: A population containing mouse hematopoietic stem cells was processed using a cell sorter to enrich cells with the surface phenotype CD150^+ CD48^- EPCR^+ Lineage^- Sca-1^+c-Kit^+. These purified cells are hereinafter referred to as mouse HSCs. 300 mouse HSCs were cultured for one week at 37°C under 5% CO2 in medium containing SF-O3 (Sanko Junyaku), SCF 100ng/mL, and TPO 100ng/mL. The number of cells in each colony formed after culture was counted. All subsequent culture experiments were performed at 37°C under 5% CO2. The concentration of each thyroid hormone and its metabolites was set to 10 µM. The control group (Ctl) medium contained no added thyroid hormones or metabolites.
Results: The groups treated with thyroid hormones and their metabolites were compared to the control group (Ctl). […] Circles represent counts per colony. Error bars indicate standard deviation. "Ctl" on the x-axis denotes the absence of added thyroid hormones and their metabolites. […] Circles represent measured values per colony. Error bars indicate standard deviation.
In Figures 1 and 2, T4 denotes thyroxine (T4). T3 denotes 3,3',5-triiodo-L-thyronine (T3). rT3 denotes 3,3',5'-triiodothyronine (rT3). 3,3'T2 denotes 3,3'-diiodo-L-thyronine (3,3'-T2). 3,5T2 denotes 3,5-diiodo-L-thyronine (3,5-T2). 3',5'T2 denotes 3',5'-diiodo-L-thyronine (3',5'-T2). T1AA denotes 3-iodothyroacetic acid (3-T1AA). T1AM denotes 3-iodothyronamine (3-T1AM). L-T0 denotes L-thyronine (T0). DL-T0 denotes the racemic form of thyronine.

In assay [1] the test system is EPCR-positive HSCs (EPCR+HSCs). The assay is described as follows: Culture of HSCs in the presence of carboxylic acid derivatives of thyronine. The settings on record: compared to the control group treated with DMSO alone; Figure 9. The text has this:
T3 represents 3,3',5-triiodo-L-thyronine (T3). T3 acetic acid denotes 3,3',5-triiodo-L-thyroacetic acid (T3AA). 35T2 denotes 3,5-diiodo-L-thyronine (3,5-T2). 35T2 acetic acid denotes 3,5-diiodo-L-thyroacetic acid (3,5-T2AA). 33T2 denotes 3,3'-diiodo-L-thyronine (3,3'-T2).

The subject of assay [2] is mouse-derived HSCs. The assay is described as follows: Culture of HSCs in medium containing a thyroid hormone derivative. Conditions: medium containing sobetirome. The text has this:
Additionally, HSC differentiation was suppressed.

The test system of assay [3] is mouse-derived HSCs. Kind of assay: Expansion of mouse-derived HSCs in serum-free medium containing PVA. The settings on record: serum-free medium containing PVA and T2. The procedure:
Mouse-derived HSCs were cultured in serum-free medium containing PVA and T2 instead of the serum-containing T2 medium described above. HSC expansion was also promoted in this serum-free medium. Furthermore, HSC differentiation was suppressed. At this time, the optimal concentration of T2 was 0.1 µM.

For a further assay, the system named is EPCR+HSC. The assay is described as follows: 4-week culture of hematopoietic cells in the presence of T2. The text has this: The control group received only DMSO. Differentiated blood cells are c-Kit-negative cells. MPP3, MPP2, and MPP1 are multipotent progenitor cells (MPPs) referred to as hematopoietic progenitor cells. EPCR-HSC are EPCR-negative HSCs. EPCR-HSC are slightly less functional than EPCR-positive HSCs. EPCR+HSC are EPCR-positive HSCs. EPCR+HSC represent the most undifferentiated population among HSCs.

Each structure is given as a SMILES string. “Also recorded” adds a separate entry of the source.

For the compound `N[C@@H](Cc1cc(I)c(Oc2ccc(O)cc2)c(I)c1)C(=O)O` [3,5-T2, 3,5-Diiodo-L-thyronine], in the assay on mouse HSCs, the “number of HSCs after culture (total cell count per colony)” value (from here on “number … (total cell count per colony)”) was “high” and the “CD48 expression (mean fluorescence intensity of CD48 staining per colony)” value is on record as “maintained at low levels”. Besides, the “proportion of EPCR+HSCs after culturing HSCs” value (“proportion of EPCR+HSCs” below) in assay [1] is listed as “increased”.

`Cc1cc(OCC(=O)O)cc(C)c1Cc1ccc(O)c(C(C)C)c1` [sobetirome, Sobetirome]: in the assay with mouse-derived HSCs [2], the HSC differentiation result is listed as “suppressed” and the HSC expansion result was “promoted HSC expansion”.

Regarding `N[C@@H](Cc1ccc(Oc2ccc(O)c(I)c2)c(I)c1)C(=O)O` [3,3'-T2, 3,3'-Diiodo-L-thyronine], in the assay with mouse HSCs, the “number … (total cell count per colony)” value is “high” and the “CD48 expression (mean fluorescence intensity of CD48 staining per colony)” value was “maintained at low levels; also recorded: most strongly suppressed CD48 expression”. Besides, the “proportion of EPCR+HSCs” value in assay [1] was “increased”.

Consider `N[C@@H](Cc1cc(I)c(Oc2ccc(O)c(I)c2)c(I)c1)C(=O)O` [T3, 3,3',5-triiodo-L-thyronine], for which, in the assay with mouse HSCs, the “number … (total cell count per colony)” value is listed as “high” and the “CD48 expression (mean fluorescence intensity of CD48 staining per colony)” value is reported as “maintained at low levels”. In assay [1], the “proportion of EPCR+HSCs” value is “increased”.

Turning to `O=C(O)Cc1ccc(Oc2ccc(O)cc2)c(I)c1` [T1AA, 3-Iodo-L-thyroacetic acid], in the assay with mouse HSCs, the “number … (total cell count per colony)” value is given as “tendency to promote cell proliferation” and the “CD48 expression (mean fluorescence intensity of CD48 staining per colony)” value was “tendency to reduce CD48 expression”.

As for `O=C(O)Cc1cc(I)c(Oc2ccc(O)cc2)c(I)c1` [35T2 acetic acid, 3,5-Diiodo-L-thyroacetic acid], the “proportion of EPCR+HSCs” value in assay [1] is listed as “increased”.

In the case of `N[C@@H](Cc1ccc(Oc2cc(I)c(O)c(I)c2)c(I)c1)C(=O)O` [rT3, 3,3',5'-Triiodothyronine], in the assay with mouse HSCs, the “number … (total cell count per colony)” value was “high” and the “CD48 expression (mean fluorescence intensity of CD48 staining per colony)” value is on record as “maintained at low levels”.

As to `N[C@@H](Cc1cc(I)c(Oc2cc(I)c(O)c(I)c2)c(I)c1)C(=O)O` [T4, thyroxine], in the assay with mouse HSCs, the “number … (total cell count per colony)” value is given as “high” and the “CD48 expression (mean fluorescence intensity of CD48 staining per colony)” value is “maintained at low levels”.

For `N[C@@H](Cc1ccc(Oc2ccc(O)c(I)c2)c(I)c1)C(=O)O` [T2, 3,3'-Diiodo-L-thyronine], in the assay with mouse-derived HSCs [3], the HSC differentiation result was “suppressed”, the HSC expansion result is “promoted” and the “optimal concentration of T2” value worked out at 0.1 µM. The “expansion factor of EPCR+HSC” value in the assay with EPCR+HSC (EPCR+HSC cultured 4 weeks in the presence of T2) is listed as 204 fold. The “EPCR+HSC expansion” value in the assay on EPCR+HSC (EPCR+HSC cultured 4 weeks in the presence of T2, vs control group (DMSO), Figure 10) is on record as “expanded more than in the control group”. Besides, the “expansion of other cells derived from EPCR+HSC (EPCR-HSC, MPP3, MPP2, MPP1, differentiated blood cells)” value in the assay with EPCR+HSC (EPCR+HSC cultured 4 weeks in the presence of T2, Figure 10) was “expanded”.

The values above are taken from patent EP4733383A1, “CULTURE MEDIUM AND BLOOD CELL CLONE, AND METHOD FOR PRODUCING SAME” (Japan Institute for Health Security, priority 2023, dated 2024).
